Reference: US20060167106A1, “Compounds acting at the centrosome” (priority 2004, published 2006)
“Also recorded” adds a separate entry of the source.

How the values were obtained:
[1] = tested on: 26S proteasome; assay: Proteasome-sensor cells (HEK-293, GFP chimera), fluorescence imaging; type: cell-based; settings: for accumulation of the GFP-based proteasome substrate at the center of the colonies: Compound 1 500 nM 20-40 hours, Velcade 50 or 500 nM 20 hours; for accumulation of GFP-labeled proteasome-targeting chimera protein, periphery of colony relative to center: HEK-293 colony, 500 nM; for proteasome inhibition activity in cell-based assays (overall statement): live proteasome-sensor cells
From the text: Specifically, the proteasome-sensor cells are HEK-293 cells stably transfected with a vector (proteasome-sensor vector) that encodes naturally-occurring reef coral Zoanthus sp. green fluorescent protein (GFP) fused to a specific degradation motif that targets the fusion protein for removal by the 26S proteasome. The background fluorescence observed in normal cells with active proteasomes is low. When proteasomes are inhibited, the fluorescent protein quickly accumulates. […] Millennium Pharmaceuticals, Inc., Cambridge, Mass.). […] Velcade (Millennium Pharmaceuticals Inc.) was used as a positive control in this assay (at 5 nM, 50 nM, 500 nM or 5 μM). Velcade stock solution was prepared according to the manufacturer's instructions. GFP fluorescence of the cells was imaged at various time points using a standard filter for FITC with the Nikon TE300 microscope/digital imaging system described herein.

[2] = tested on: CHO cells; assay: Cell morphology, simultaneous time-lapse imaging of CHO cells; type: cell-based, Chinese hamster; settings: for cell death: cells, after a certain period of treatment
Method: CV-1 cells and CHO cells were previously cultured in 2-well chambered cover-slips for 48 hours and incubated in 15 mM HEPES buffer-containing Ham's F-12/DMEM medium with different compounds. The cells were imaged using phase contrast settings with the Nikon TE300 microscope/digital imaging system. The cells were imaged ‘simultaneously’ under control of MetaVue software by capturing frames for cells from different conditions at the same time period using a motorized automated XYZ stage.
To track the effect of Compound 1 on live cells, non-transfected CV-1 cells with were treated with 500 nM Compound 1 and phase contrast time-lapse images were taken every 10 seconds. […] A very low concentration of Taxol (10 nM) was used.

[3] = tested on: cell line expressing α-tubulin-YFP; assay: α-tubulin-YFP expressing cell line, flow cytometry of strong fluorescent cells; type: cell-based
[4] = cited from earlier work
[5] = target: T1, bovine red blood cell 20S proteasome (Bos taurus, UniProt Q32KL2); assay: 20S Proteasome Assay (in vitro, Suc-Leu-Val-Tyr-AMC); type: biochemical; settings: isolated 20S proteasome; for proteasome activity in vitro: 5 nM
T1 construct: bovine red blood cell 20S proteasome; purchased Calbiochem; host or cells: purified from bovine red blood cells
Method: 190 μl of reaction buffer (500 mM HEPES, 10 nM EDTA, pH 7.6), containing 0.03% SDS was pre-incubated for 5 minutes at 37° C. in the presence of 0.2 μg of bovine red blood cell 20S proteasome (Calbiochem, San Diego, Calif.) for temperature equilibration. Subsequently, inhibitors or Compound 1 were added to the reaction mixture at a final DMSO concentration of 0.5%. The reaction was initiated by adding 10 μl of the peptide-AMC substrate (Calbiochem, San Diego, Calif.) to each well. The emitted fluorescence was then measured every third minute at 37° C. for 90 minutes by a fluorescence plate reader (FlexStation II, Molecular Devices, Sunnyvale, Calif.) at 460 nm (λex360 nm) wavelength.
The buffers and reagents for the assay were purchased from Calbiochem (20S Proteasome Assay Kit; Calbiochem, San Diego, Calif.). The principle of the assay is that the release of free AMC (7-Amino-4-methylcoumarin) following degradation of the substrate results in a fluorescent signal that is a measure of proteasome activity. The quantitative analysis of 20S proteasome activity was assayed as described.

[6] = tested on: 26S proteasome; assay: Proteasome-sensor cells, flow cytometry; type: cell-based
Method: The first measurement was determined by the increase of proteasome-sensor positive cells treated with Compound 1 or Velcade, as compared to DMSO, by using a cell line expressing the proteasome-sensor protein and flow cytometry analysis.
To measure the proteasome-inhibition effect of Compound 1, GFP fluorescence in the proteasome-sensor cells treated with Compound 1 and Velcade was measured using flow cytometry. […] Cells were harvested by treating the cells with 1×PBS for 5 minutes and pipetting the cells up and done 10 times. The cells were passed through a 100 μm-diameter filter before analyzing by FACS. A standard FITC filter was used for the FACS analysis. Quantitation of the proteasome-inhibitory effect of Compound 1 was determined by an increase in the percentage of GFP-positive cells, as compared to treatment with DMSO alone.
To further characterize the proteasome-inhibitory effect of Compound 1 in live cells, proteasome-sensor cells were treated with Compound 1 and the accumulation of the GFP-based proteasome substrate was measured by flow cytometry.

CN(NC(=O)CC(=O)NN(C)C(=S)c1ccccc1)C(=S)c1ccccc1 [Compound 1]
accumulation of the GFP-based proteasome substrate at the center of the colonies ([1]; FIG. 14): did not cause significant accumulation | accumulation of the GFP-based proteasome substrate at the periphery of the colonies ([1]; FIG. 14, Compound 1 500 nM, 20-40 hours): significant accumulation of the GFP-based proteasome substrate | accumulation of proteasome-sensor protein in cells ([1]; HEK-293, 1 nM, 20 hours): accumulation of proteasome-sensor protein in cells | accumulation of proteasome-sensor protein in cells ([1]; HEK-293, 5 nM, 20 hours): accumulation of proteasome-sensor protein in cells | accumulation of proteasome-sensor protein in cells ([1]; HEK-293, 10 nM, 20 hours): accumulation of proteasome-sensor protein in cells | accumulation of proteasome-sensor protein in cells ([1]; HEK-293, 50 nM, 20 hours): induced an increase of the GFP-based proteasome substrate in the cytoplasm in some scattered cells; also recorded: accumulation of proteasome-sensor protein in cells | accumulation of proteasome-sensor protein in cells ([1]; HEK-293, 100 nM, 20 hours): significantly increased the GFP signal in the cytosol; also recorded: accumulation of proteasome-sensor protein in cells | accumulation of proteasome-sensor protein in cells ([1]; HEK-293, 0.5 μM, 24 hours): accumulation of proteasome-sensor protein in cells | accumulation of proteasome-sensor protein in cells ([1]; HEK-293, 500 nM, 20 hours): accumulation of proteasome-sensor protein in cells | accumulation of GFP-labeled proteasome-targeting chimera protein, periphery of colony relative to center ([1]; 20 hours): stronger accumulation at the periphery of the colony | accumulation of GFP-labeled proteasome-targeting chimera protein, periphery of colony relative to center ([1]; 40 hours): stronger accumulation at the periphery of the colony | distribution of GFP-labeled proteasome-targeting chimera protein ([1]; HEK-293 proteasome-sensor cell, 5 μM, 24 hours): general, broad distribution of GFP-labeled proteasome-targeting chimera protein in both the cytosol and nucleus | proteasome inhibition activity in cell-based assays (overall statement) [1]: weak-to-moderate proteasome inhibitory effect in live cells; also recorded: moderate proteasome inhibition activity; also recorded: weak/moderate proteasome inhibitor | proteasome inhibition activity in cell-based assays (overall statement) ([1]; listed as GMP-grade Compound 1): detectable level of proteasome inhibition activity | time of induced cell shrinkage ([2]; CHO cells, 500 nM): 70 min | cell death [2]: cause cell death after a certain period of treatment | increase of the strong-fluorescent positive cells compared to DMSO ([3]; 500 nM): 20.37% | toxicity in vivo [4]: very low toxicity in vivo | proteasome inhibitory activity in vitro (overall statement) [5]: very weak proteasome inhibitory activity in the in vitro assay | proteasome activity in vitro [5]: no effect on proteasome activity | proteasome inhibitory activity in vitro ([5]; 50 μM): did not exhibit significant proteasome inhibitory activity; also recorded: neither Compound 1 nor its salt form, Compound 2, displayed significant proteasome inhibitory activity | proteasome inhibitory activity in vitro (overall statement) ([5]; listed as GMP-grade Compound 1): failed to inhibit isolated proteasomes | increase of the fluorescent positive cells (proteasome-sensor positive) compared to DMSO ([6]; 500 nM): 14.53% | increase of fluorescence (non-gated flow cytometry) ([6]; 500 nM, 20 hours): significant increase of fluorescence | increase in fluorescent cell population, lower than that of cells treated with Velcade ([6]; Compound 1 500 nM versus Velcade 100 nM, 20 hours): about 4 fold

CC(C)C[C@H](NC(=O)[C@H](Cc1ccccc1)NC(=O)c1cnccn1)B(O)O [Velcade]
accumulation of the GFP-based proteasome substrate at the center of the colonies ([1]; FIG. 14): greater accumulation of the GFP-based proteasome substrate in cells at the colony center than did Compound 1 | accumulation of proteasome-sensor protein in cells ([1]; HEK-293, 1 nM, 20 hours): accumulation of proteasome-sensor protein in cells | accumulation of proteasome-sensor protein in cells ([1]; HEK-293, 5 nM, 20 hours): significantly induced an increase of GFP signal; also recorded: accumulation of proteasome-sensor protein in cells | accumulation of proteasome-sensor protein in cells ([1]; HEK-293, 10 nM, 20 hours): accumulation of proteasome-sensor protein in cells | accumulation of proteasome-sensor protein in cells ([1]; HEK-293, 50 nM, 20 hours): accumulation of proteasome-sensor protein in cells | accumulation of proteasome-sensor protein in cells ([1]; HEK-293, 100 nM, 20 hours): accumulation of proteasome-sensor protein in cells | accumulation of proteasome-sensor protein in cells ([1]; HEK-293, 100 nM, 24 hours): accumulation of proteasome-sensor protein in cells | accumulation of proteasome-sensor protein in cells ([1]; HEK-293, 500 nM, 20 hours): accumulation of proteasome-sensor protein in cells | effect on cell morphology ([2]; CHO cells, 100 nM): did not dramatically affect cell morphology until cell death | time of cell death ([2]; CHO cells, 100 nM): 210 min | cell death [2]: cause cell death after a certain period of treatment | increase of the strong-fluorescent positive cells compared to DMSO ([3]; 50 nM): 27.74% | toxicity in vivo [4]: greater toxicity | proteasome activity in vitro [5]: almost complete inhibition | proteasome inhibition in vitro ([5]; 0.5 μM): almost completely inhibited the proteasome | increase of the fluorescent positive cells (proteasome-sensor positive) compared to DMSO ([6]; 100 nM): 58.26% | increase of fluorescence (non-gated flow cytometry) ([6]; 100 nM, 20 hours): significant increase of fluorescence
